# Measurements reported in patent publication US9393326B2, “Compositions and methods for multimodal imaging” (University Health Network, priority 2005, dated 2016).
# Assays:
# [1] = In vitro relaxometry (r1, r2); type: physicochemical; conditions: 20° C., 1.5 T, versus gadolinium concentration (free iohexol: [I])
# Method: All in vitro relaxometry measurements were performed at 20° C. on a 1.5 Tesla, 20-cm-bore superconducting magnet (Nalorac Cryogenics Corp., Martinez, Calif.) controlled by an SMIS spectroscopy console (SMIS, Surrey, UK). The T1 relaxation time data were acquired using an inversion recovery (IR) sequence (45) with 35 inversion recovery time (TI) values logarithmically spaced from 1 to 32000 ms. A 10 second delay was given between each acquisition and the next inversion pulse. […] For every measurement 2000 even echoes were sampled with 8 averages. The effects of any residual transverse magnetization following the off-resonance irradiation was removed by phase-cycling the π/2 pulse (−x/x).
# The T1 relaxation data were analyzed assuming mono-exponential behaviour
# [formula] where S is the signal observed, M0 is the magnetization at equilibrium, t is time and T1 is the longitudinal relaxation time). All T2 decay data were plotted to a one component T2 model with a Gaussian fit on a logarithmic time scale. The r1 and r2 values were calculated from linear regression analysis of 1/T1 and 1/T2 relaxation rates versus gadolinium concentration.
# [2] = In vitro MR imaging in multimodal phantom
# Description: The phantom and the vials were filled to capacity to minimize air-induced susceptibility artefacts. Scans were produced using a T1 weighted spin echo sequence with a repetition time (TR) of 400 ms, an echo time (TE) of 9 ms, a slice thickness of 3 mm, a FOV of 1 9.9×19.9 cm and an image carrier of 256×192 pixels. The relative signal intensity was taken over the ROI. Solutions of free signal modifying agents were also imaged as controls in both modalities.
# [3] = In vitro CT imaging in multimodal phantom; conditions: 120 kV, 300 mA
# Method: In vitro contrast efficacy was determined by imaging the liposome formulated signal modifying agents at varying concentrations in both CT and MR, using a multimodal imaging phantom. To minimize the amount of agent leakage from liposomes, in vitro imaging scans were performed immediately following the removal of free agents by dialysis. […] The mean attenuation in Hounsfield units was measured using circular regions of interest (ROI). Attenuation values were then plotted against signal modifying agent concentrations using linear regression analysis.
r1 ([1]; listed as iohexyl) [s^−1mmol^−1L],SMILES,r1 [1] [s^−1mmol^−1L],r2 [1] [s^−1mmol^−1L],r1 ([1]; listed as unencapsulated gadoteridol) [s^−1mmol^−1L],peak differential signal intensities with respect to water in MR ([2]; gadolinium 1 to 9 mmol/L) [SI],CT attenuation (linear regression) [3],average differential signal intensity in MR relative to water ([2]; iodine 0 to 17 mmol/L) [SI]
,"CC(O)CN1CCN(CC(=O)[O-])CCN(CC(=O)[O-])CCN(CC(=O)[O-])CC1.[Gd+3] (stereo not shown) [Free Gadoteridol, gadolinium complex of 10-(2-hydroxy-propyl)-1,4,7,10-tetraazacyclododecane-1,4,7-triacetic acid]",5.14 ± 0.06,6.21 ± 0.08,5.1,> 600,11.1±0.5 HU/(mg of gadolinium) in 1 mL of HBS,
0.0,"CC(=O)N(CC(O)CO)c1c(I)c(C(=O)NCC(O)CO)c(I)c(C(=O)NCC(O)CO)c1I (stereo not shown) [Free Iohexol, iohexyl]",0.00 ± 0.00,0.01 ± 0.01,,,29.0±0.4 HU/(mg of iodine) in 1 mL of HBS,1.8±7.1
